Measurements as given in ChEMBL document CHEMBL4052654, “Development of novel N-3-bromoisoxazolin-5-yl substituted 2,3-benzodiazepines as noncompetitive AMPAR antagonists” (Bioorg Med Chem, 2017).

Columns and labels:
[1] = biological target: T1, Glutamate receptor 2 (Homo sapiens, UniProt P42262); experiment: Antagonist activity at closed state of GluA2Qflip isoform (unknown origin) expressed in HEK293 cells assessed as reduction in glutamate-induced current response at 2.5 uM in presence of 0.1 mM glutamate by whole cell assay relative to control; format: cell-based
T1 sequence (P42262 whole entry, canonical isoform): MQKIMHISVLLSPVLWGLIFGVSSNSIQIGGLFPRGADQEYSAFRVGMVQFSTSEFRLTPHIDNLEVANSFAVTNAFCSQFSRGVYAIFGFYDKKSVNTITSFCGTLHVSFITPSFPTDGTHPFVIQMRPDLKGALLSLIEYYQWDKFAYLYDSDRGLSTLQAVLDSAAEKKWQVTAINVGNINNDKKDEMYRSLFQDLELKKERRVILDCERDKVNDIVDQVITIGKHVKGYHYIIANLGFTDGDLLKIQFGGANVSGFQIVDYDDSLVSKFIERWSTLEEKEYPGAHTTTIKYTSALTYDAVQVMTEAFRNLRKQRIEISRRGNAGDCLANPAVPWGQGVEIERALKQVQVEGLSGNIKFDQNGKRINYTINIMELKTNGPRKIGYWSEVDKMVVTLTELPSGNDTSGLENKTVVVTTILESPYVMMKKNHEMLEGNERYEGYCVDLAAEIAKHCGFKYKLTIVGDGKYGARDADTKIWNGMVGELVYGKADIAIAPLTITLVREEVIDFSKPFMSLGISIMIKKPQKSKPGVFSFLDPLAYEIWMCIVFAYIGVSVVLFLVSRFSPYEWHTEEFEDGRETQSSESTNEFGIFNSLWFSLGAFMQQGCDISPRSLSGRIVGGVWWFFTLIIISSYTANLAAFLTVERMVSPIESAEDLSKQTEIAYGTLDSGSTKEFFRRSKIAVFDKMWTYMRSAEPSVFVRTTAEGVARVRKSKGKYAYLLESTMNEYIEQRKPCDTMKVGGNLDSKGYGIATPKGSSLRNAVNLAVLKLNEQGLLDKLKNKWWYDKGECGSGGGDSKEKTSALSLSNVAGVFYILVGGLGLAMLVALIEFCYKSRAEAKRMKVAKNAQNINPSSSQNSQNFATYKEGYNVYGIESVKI

[2] = biological target: T1, Glutamate receptor 2; experiment: Antagonist activity at open state of GluA2Qflip isoform (unknown origin) expressed in HEK293 cells assessed as reduction in glutamate-induced current response at 2.5 uM in presence of 3 mM glutamate by whole cell assay relative to control; format: cell-based
[3] = biological target: T1, Glutamate receptor 2; experiment: Antagonist activity at closed state of GluA2Qflip isoform (unknown origin) expressed in HEK293 cells assessed as reduction in glutamate-induced current response in presence of 0.1 mM glutamate by whole cell assay; format: cell-based
[4] = biological target: T1, Glutamate receptor 2; experiment: Antagonist activity at open state of GluA2Qflip isoform (unknown origin) expressed in HEK293 cells assessed as reduction in glutamate-induced current response in presence of 3 mM glutamate by whole cell assay relative to control; format: cell-based
[5] = biological target: T1, Glutamate receptor 2; experiment: Antagonist activity at closed state of GluA2Qflip isoform (unknown origin) expressed in HEK293 cells assessed as reduction in glutamate-induced current response at 10 uM in presence of 0.1 mM glutamate by whole cell assay relative to control; format: cell-based
[6] = biological target: T1, Glutamate receptor 2; experiment: Antagonist activity at open state of GluA2Qflip isoform (unknown origin) expressed in HEK293 cells assessed as reduction in glutamate-induced current response at 10 uM in presence of 3 mM glutamate by whole cell assay relative to control; format: cell-based
[7] = biological target: T2, Glutamate receptor 1 (Homo sapiens, UniProt P42261); experiment: Antagonist activity at closed state of GluA1 (unknown origin) assessed as reduction in glutamate-induced current response in presence of 40 to 50 uM glutamate relative to control
T2 sequence (P42261 whole entry): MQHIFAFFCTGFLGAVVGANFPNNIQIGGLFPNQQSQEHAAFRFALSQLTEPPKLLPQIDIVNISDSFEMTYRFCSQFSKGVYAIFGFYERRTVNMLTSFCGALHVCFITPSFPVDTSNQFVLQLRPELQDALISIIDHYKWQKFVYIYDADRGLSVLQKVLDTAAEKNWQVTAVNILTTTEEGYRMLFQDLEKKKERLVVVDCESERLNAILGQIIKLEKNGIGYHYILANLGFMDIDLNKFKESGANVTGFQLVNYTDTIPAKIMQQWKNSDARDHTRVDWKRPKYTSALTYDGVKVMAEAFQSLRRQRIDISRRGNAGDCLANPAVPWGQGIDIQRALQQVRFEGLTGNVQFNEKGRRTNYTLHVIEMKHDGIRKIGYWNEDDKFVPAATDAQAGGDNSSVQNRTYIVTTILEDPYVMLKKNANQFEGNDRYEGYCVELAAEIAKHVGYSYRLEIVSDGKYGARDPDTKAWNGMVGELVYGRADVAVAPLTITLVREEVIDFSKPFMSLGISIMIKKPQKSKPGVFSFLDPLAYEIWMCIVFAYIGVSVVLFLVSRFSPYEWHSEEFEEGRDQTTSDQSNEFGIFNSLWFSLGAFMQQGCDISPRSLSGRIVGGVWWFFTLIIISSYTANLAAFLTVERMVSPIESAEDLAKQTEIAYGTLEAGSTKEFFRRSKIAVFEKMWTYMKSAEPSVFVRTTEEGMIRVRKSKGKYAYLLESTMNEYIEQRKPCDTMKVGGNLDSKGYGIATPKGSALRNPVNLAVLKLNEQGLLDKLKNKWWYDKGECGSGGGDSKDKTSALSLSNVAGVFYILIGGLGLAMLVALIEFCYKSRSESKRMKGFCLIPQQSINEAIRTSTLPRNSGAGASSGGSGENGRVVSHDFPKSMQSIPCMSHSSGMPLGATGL

[8] = biological target: T2, Glutamate receptor 1; experiment: Antagonist activity at open state of GluA1 (unknown origin) assessed as reduction in glutamate-induced current response in presence of 2 mM glutamate relative to control
[9] = biological target: T3, Glutamate receptor 3 (Homo sapiens, UniProt P42263); experiment: Antagonist activity at closed state of GluA3 (unknown origin) assessed as reduction in glutamate-induced current response in presence of 100 uM glutamate relative to control
T3 sequence (P42263 whole entry): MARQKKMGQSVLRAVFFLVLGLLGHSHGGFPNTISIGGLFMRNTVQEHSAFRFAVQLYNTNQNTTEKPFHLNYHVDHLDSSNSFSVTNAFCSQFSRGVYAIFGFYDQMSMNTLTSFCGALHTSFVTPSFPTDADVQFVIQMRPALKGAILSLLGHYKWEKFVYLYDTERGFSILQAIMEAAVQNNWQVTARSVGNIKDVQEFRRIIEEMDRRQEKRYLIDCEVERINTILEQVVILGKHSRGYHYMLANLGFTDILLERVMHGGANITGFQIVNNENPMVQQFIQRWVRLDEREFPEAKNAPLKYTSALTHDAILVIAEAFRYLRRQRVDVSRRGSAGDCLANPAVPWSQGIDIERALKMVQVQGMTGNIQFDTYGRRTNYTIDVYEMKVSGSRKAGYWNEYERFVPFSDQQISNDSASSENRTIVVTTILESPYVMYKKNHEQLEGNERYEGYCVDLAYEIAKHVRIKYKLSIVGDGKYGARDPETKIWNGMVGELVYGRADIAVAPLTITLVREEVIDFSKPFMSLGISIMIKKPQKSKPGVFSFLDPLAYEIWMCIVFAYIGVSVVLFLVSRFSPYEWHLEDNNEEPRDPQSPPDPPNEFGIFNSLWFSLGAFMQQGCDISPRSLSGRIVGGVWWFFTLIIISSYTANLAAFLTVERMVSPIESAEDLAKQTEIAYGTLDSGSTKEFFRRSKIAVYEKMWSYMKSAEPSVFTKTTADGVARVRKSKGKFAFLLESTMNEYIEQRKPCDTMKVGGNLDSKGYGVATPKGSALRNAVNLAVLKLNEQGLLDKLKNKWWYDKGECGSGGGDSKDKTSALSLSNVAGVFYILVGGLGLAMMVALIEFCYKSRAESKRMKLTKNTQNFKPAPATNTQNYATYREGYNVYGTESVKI

[10] = biological target: T3, Glutamate receptor 3; experiment: Antagonist activity at open state of GluA3 (unknown origin) assessed as reduction in glutamate-induced current response in presence of 3 mM glutamate relative to control
[11] = biological target: T4, Glutamate receptor 4 (Homo sapiens, UniProt P48058); experiment: Antagonist activity at closed state of GluA4 (unknown origin) assessed as reduction in glutamate-induced current response in presence of 100 uM glutamate relative to control
T4 sequence (P48058 whole entry): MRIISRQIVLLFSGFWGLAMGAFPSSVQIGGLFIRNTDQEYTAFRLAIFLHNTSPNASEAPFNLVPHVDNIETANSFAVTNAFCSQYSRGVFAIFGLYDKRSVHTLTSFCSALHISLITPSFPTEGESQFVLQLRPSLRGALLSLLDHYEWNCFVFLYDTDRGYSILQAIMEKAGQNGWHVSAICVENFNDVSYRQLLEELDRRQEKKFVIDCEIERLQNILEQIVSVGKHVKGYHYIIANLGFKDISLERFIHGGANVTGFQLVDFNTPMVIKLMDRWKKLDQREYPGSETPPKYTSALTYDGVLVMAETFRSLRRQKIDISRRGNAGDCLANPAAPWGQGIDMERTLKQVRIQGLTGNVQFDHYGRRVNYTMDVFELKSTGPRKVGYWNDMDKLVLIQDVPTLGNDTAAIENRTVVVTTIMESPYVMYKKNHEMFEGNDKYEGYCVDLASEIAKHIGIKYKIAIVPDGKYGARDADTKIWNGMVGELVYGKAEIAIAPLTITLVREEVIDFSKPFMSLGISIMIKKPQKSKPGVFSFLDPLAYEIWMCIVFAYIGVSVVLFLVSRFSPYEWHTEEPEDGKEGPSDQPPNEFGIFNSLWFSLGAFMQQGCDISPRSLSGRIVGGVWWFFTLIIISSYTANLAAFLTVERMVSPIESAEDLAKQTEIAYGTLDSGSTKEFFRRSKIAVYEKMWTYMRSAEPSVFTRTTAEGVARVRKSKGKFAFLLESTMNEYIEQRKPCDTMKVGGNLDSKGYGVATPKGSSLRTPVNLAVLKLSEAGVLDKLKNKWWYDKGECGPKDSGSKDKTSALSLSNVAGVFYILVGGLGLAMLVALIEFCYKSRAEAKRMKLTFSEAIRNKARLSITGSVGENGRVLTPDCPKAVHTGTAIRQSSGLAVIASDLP

[12] = biological target: T4, Glutamate receptor 4; experiment: Antagonist activity at open state of GluA4 (unknown origin) assessed as reduction in glutamate-induced current response in presence of 3 mM glutamate relative to control
[13] = biological target: T2, Glutamate receptor 1; experiment: Antagonist activity at closed state of GluA1 (unknown origin) assessed as reduction in glutamate-induced current response in presence of 40 to 50 uM glutamate
[14] = biological target: T2, Glutamate receptor 1; experiment: Antagonist activity at open state of GluA1 (unknown origin) assessed as reduction in glutamate-induced current response in presence of 2 mM glutamate
[15] = biological target: T3, Glutamate receptor 3; experiment: Antagonist activity at closed state of GluA3 (unknown origin) assessed as reduction in glutamate-induced current response in presence of 100 uM glutamate
[16] = biological target: T3, Glutamate receptor 3; experiment: Antagonist activity at open state of GluA3 (unknown origin) assessed as reduction in glutamate-induced current response in presence of 3 mM glutamate
[17] = biological target: T4, Glutamate receptor 4; experiment: Antagonist activity at closed state of GluA4 (unknown origin) assessed as reduction in glutamate-induced current response in presence of 100 uM glutamate
[18] = biological target: T4, Glutamate receptor 4; experiment: Antagonist activity at open state of GluA4 (unknown origin) assessed as reduction in glutamate-induced current response in presence of 3 mM glutamate
[19] = biological target: T1, Glutamate receptor 2; experiment: Antagonist activity at closed state of GluA2Qflip isoform (unknown origin) expressed in HEK293 cells assessed as reduction in glutamate-induced current response at 1 uM in presence of 0.1 mM glutamate by whole cell assay relative to control; format: cell-based
[20] = biological target: T1, Glutamate receptor 2; experiment: Antagonist activity at open state of GluA2Qflip isoform (unknown origin) expressed in HEK293 cells assessed as reduction in glutamate-induced current response at 1 uM in presence of 3 mM glutamate by whole cell assay relative to control; format: cell-based
[21] = biological target: T1, Glutamate receptor 2; experiment: Antagonist activity at closed state of GFP-tagged GluA2Qflip isoform (unknown origin) expressed in HEK293S cells assessed as reduction in glutamate-induced current response in presence of 0.1 mM glutamate by whole cell assay; format: cell-based
[22] = biological target: T1, Glutamate receptor 2; experiment: Antagonist activity at open state of GFP-tagged GluA2Qflip isoform (unknown origin) expressed in HEK293S cells assessed as reduction in glutamate-induced current response in presence of 3 mM glutamate by whole cell assay relative to control; format: cell-based

Nc1ccc(C2=NN(C3CC(Br)=NO3)C(=O)Cc3cc4c(cc32)OCCO4)cc1 (stereo not drawn)
fold change (FC) [1]: 1.75
fold change (FC) [2]: 1.18
Ki [3]: 3 µM
Ki ([4]; read-out: Ki): 14 µM

Cc1cc(C2=NN(CC3CC(Br)=NO3)C(=O)Cc3cc4c(cc32)OCCO4)ccc1N (stereo not drawn)
fold change (FC) [5]: 1.23
fold change (FC) [6]: 1.2
Ki [3]: 50 µM
Ki ([4]; read-out: Ki): 50 µM

Cc1cc(C2=NN(CC3CC(Br)=NO3)C(=O)Cc3cc4c(cc32)OCCO4)cc(C)c1N (stereo not drawn)
fold change (FC) [1]: 1.46
fold change (FC) [2]: 0.95
Ki [3]: 5 µM
Ki [4]: Not Active
fold change (FC) [7]: 1.19
fold change (FC) [8]: 1.39
fold change (FC) [9]: 1.09
fold change (FC) [10]: 1.18
fold change (FC) [11]: 1.34
fold change (FC) [12]: 1.22
Ki [13]: 13.2 µM
Ki [14]: 6.4 µM
Ki [15]: 27.8 µM
Ki [16]: 13.9 µM
Ki [17]: 7.4 µM
Ki [18]: 11.4 µM

Nc1ccc(C2=NN(CC3CC(Br)=NO3)C(=O)Cc3cc4c(cc32)OCCO4)cc1 (stereo not drawn)
fold change (FC) [19]: 1.44
fold change (FC) [20]: 1.09

Cc1cc(C2=NNC(=O)Cc3cc4c(cc32)OCCO4)cc(C)c1N
Ki [21]: 94 µM
Ki [22]: 164 µM

CC1=NN=C(c2ccc(N)cc2)c2cc3c(cc2C1)OCO3 [GYKI-52466]
Ki [21]: 4 µM
Ki [22]: 5 µM

Cc1cc(C2=NN(C3CC(Br)=NO3)C(=O)Cc3cc4c(cc32)OCCO4)ccc1N (stereo not drawn)
fold change (FC) [19]: 1.01
fold change (FC) [20]: 1.16

Cc1cc(C2=NN(C3CC(Br)=NO3)C(=O)Cc3cc4c(cc32)OCCO4)cc(C)c1N (stereo not drawn)
fold change (FC) [19]: 1.21
fold change (FC) [20]: 1.24

Cc1cc(C2=NNC(=O)Cc3cc4c(cc32)OCCO4)ccc1N
Ki [21]: 4 µM
Ki [22]: 9 µM

Nc1ccc(C2=NNC(=O)Cc3cc4c(cc32)OCCO4)cc1
Ki [21]: 21 µM
Ki [22]: 33 µM
